Laboratory results published in patent US9751875B2, “Quinine compounds, and optical isomers, preparation method and medical use thereof” (BEIJING FSWELCOME TECHNOLOGY DEVELOPMENT CO., LTD., priority 2013, dated 2017).

Assays:
[1] = test system: tracheal smooth muscle from guinea pigs (contraction induced by 3 × 10^−6 mol/L of CCh); assay: Antagonism in vitro of contraction of isolated tracheal smooth muscle from guinea pigs induced by carbachol (CCh); assay type: cell-based, guinea pig; settings: read-out: IC50 (μM), antagonism in vitro against the contraction of the tracheal smooth muscle induced by CCh; 3 × 10^−6 mol/L of CCh; cumulative dosing
[2] = test system: m1, m2 and m3 subtypes of M receptor; assay: Competitive [3H]-QNB binding on membranes of CHO cells transfected with m1, m2, m3; selectivity on subtypes of M receptor; settings: ratio of Ki, n = 6
[3] = test system: bronchus in guinea pigs (contractile response induced by Mch); assay: Antagonism of contractile response of bronchus in guinea pigs induced by methacholine (Mch); airway resistance and pulmonary dynamic compliance; assay type: in vivo, guinea pig; settings: Mch 10 μg/kg iv after 30 min; for Cdyn(ml/cm H2O) / Raw (cm H2O/ml/s): Mean ± S.E.M
Description: Determination of tidal volume, airway flow rate, and transpulmonary pressure: 1.5 g/kg of urethane was intraperitoneally injected to narcotize the guinea pig. The guinea pig was fixed supinely and treated with tracheal intubation, and the external jugular vein was separated and an indwelling needle was inserted; the guinea pig was enclosed into a body plethysmograph, a blunt needle for intubation into thoracic cavity was inserted between ribs 4˜5 of the prothorax of the guinea pig, and the intrathoracic pressure could be measured (with a negative value of a water column of a water manometer and a fluctuation with the breath of the guinea pig as marks). After stabilization, the values of the tidal volume, airway flow rate and transpulmonary pressure of the guinea pig prior to administration of Mch were recorded by a MedLab biological signal collection and processing system as base values. 10 μg/kg body weight of Mch was intravenously injected. The changes of the airway flow rate, tidal volume and transpulmonary pressure of the guinea pig within 5 minutes were observed. Calculation of Raw and Cdyn: the changes of the increased percentage of Raw value and the decreased percentage of Cdyn after […] of Mch were calculated.
Calculation formulas of Raw and Cdyn were respectively: […]
Dose-effect relationship: For each of the example compounds, 27 guinea pigs were randomly divided into […]: a solvent control group with […], a group with 1 μg/kg of the example compounds 4, 10, 14, and 26, a group with 3 μg/kg of the example compounds 4, 10, 14, and 26 and a group with 10 μg/kg of the example compounds 4, 10, 14, and 26; after 30 min from the dropping of the above concentration of drugs in the airway, 10 μg/kg body weight of Mch was intravenously injected for excitation, and airway resistance (Raw) and pulmonary dynamic compliance (Cdyn) within 5 min were determined. […]

[4] = test system: tracheal smooth muscle from guinea pigs (contraction induced by 3 × 10^−6 mol/L of CCh); assay: Antagonism in vitro of contraction of isolated tracheal smooth muscle from guinea pigs induced by carbachol (CCh); assay type: cell-based, guinea pig

OC(CO[C@H]1C[N+]2(CCCOc3ccccc3)CCC1CC2)(c1ccccc1)C1CCC1.[Br-] (stereo partly drawn) [Example 14, (2S,3S)-3-[(2-cyclobutyl-2-hydroxyl-2-phenyl)ethoxyl]-1-(3-phenoxypropyl)-1-azabicyclo[2,2,2]octane bromide]
IC50 [1]: 4.87 µM
Selectivity m1/m2, Mx/My = Ki(y)/Ki(x) [2]: 25.6
Selectivity m1/m3, Mx/My = Ki(y)/Ki(x) [2]: 0.205
Selectivity m2/m3, Mx/My = Ki(y)/Ki(x) [2]: 0.008
inhibition ratio against the decrease of pulmonary dynamic compliance ([3]; 1 μg/kg dropped in the airway): 11.0%
inhibition ratio against the increase of airway resistance ([3]; 1 μg/kg dropped in the airway): 63.5%
Cdyn(ml/cm H2O) ([3]; 1 μg/kg dropped in the airway): 0.101 ± 0.010 ml/cm H2O
Raw (cm H2O/ml/s) ([3]; 1 μg/kg dropped in the airway): 0.719 ± 0.082 cm H2O/ml/s
inhibition ratio against the decrease of pulmonary dynamic compliance ([3]; 3 μg/kg dropped in the airway): 46.1%
inhibition ratio against the increase of airway resistance ([3]; 3 μg/kg dropped in the airway): 85.4%
Cdyn(ml/cm H2O) ([3]; 3 μg/kg dropped in the airway): 0.141 ± 0.014 ml/cm H2O
Raw (cm H2O/ml/s) ([3]; 3 μg/kg dropped in the airway): 0.560 ± 0.062 cm H2O/ml/s
inhibition ratio against the decrease of pulmonary dynamic compliance ([3]; 10 μg/kg dropped in the airway): 49.5%
inhibition ratio against the increase of airway resistance ([3]; 10 μg/kg dropped in the airway): 90.5%
Cdyn(ml/cm H2O) ([3]; 10 μg/kg dropped in the airway): 0.207 ± 0.018 ml/cm H2O
Raw (cm H2O/ml/s) ([3]; 10 μg/kg dropped in the airway): 0.504 ± 0.073 cm H2O/ml/s
Onset time [4]: 6.34 min
Time for eliminating inhibition effect (min) [4]: more than 300 min
